From patent US20220268782A1, “METHODS FOR PREDICTING AND TREATING CARDIAC DYSFUNCTION” (INSERM (INSTITUT NATIONAL DE LA SANTÉ EAT DE LA RECHERCHE …, priority 2019, published 2022)

What was measured:
[1] = test system: Myocardial nitric oxide synthase (NOS); assay: Myocardial nitric oxide synthase activity in hearts of BH4-treated mice; type: in vivo; conditions: hearts of 12.5-month-old WT mice treated with BH4 or vehicle, FIG. 4i
Method: Myocardial nitric oxide synthase (NOS) activity was determined in hearts of 12.5-month-old WT mice treated with BH4 or vehicle using a commercial kit (Biovision). Briefly, pulverized heart aliquots were processed according to the manufacturer's instructions and fluorometric readouts (excitation: 360, emission: 450) were normalised to protein concentration determined by Bradford assay. Activity of recombinant NOS protein served as positive control.

[2] = test system: primary adult rat cardiomyocytes; assay: Immunoblot of p21 in primary adult rat cardiomyocytes; type: cell-based; conditions: FIG. 1g
Method: Male Spargue Dawley rats (9 weeks, 300-350 g) were anesthetised with ketamine and xylazine (100 and 10 mg/kg, respectively) with heparin added (100 UI/kg). Hearts were excised and retrogradely perfused with an oxygenated ([…]) perfusion buffer consisting of NaCl 113 mM, KCl 4.7 mM, KH2PO4 0.6 mM, Na2HPO4 0.6 mM, MgSO4-7H2O 1.2 mM, NaHCO3 12 mM, KHCO3 10 mM, HEPES 10 mM, Taurine 30 mM, phenol red 0.032 mM, D-glucose 5.5 mM, 2,3-butanedionemonoxime 10 mM, pH 7.4) for 2 minutes to wash out the blood from the coronary arteries. Then hearts were perfused with a digestion buffer (perfusion buffer supplemented with 0.1 mg/mL liberase, 0.14 mg/mL trypsine-EDTA and 12.5 μM Ca^2+) for 10-12 minutes. Hearts were then placed in a stopping buffer (perfusion buffer supplemented with 10% NBCS and 12.5 μM Ca^2+). Atria and right ventricles were removed. Left ventricles were dissected into small fragments, then subjected to successive aspirations-reflux. Digested ventricles were filtered through a 250 μm cell strainer. […]
Cells were washed briefly with ice-cold 1×PBS, scraped in 400 μL T-PER lysis buffer (ThermoFisher) supplemented with 0.1 mM phenylmethylsulphonyl fluoride (PMSF) and protease/phosphatase inhibitor cocktail tablet (ThermoFisher). […] Protein concentrations were determined with Bradford assay (Biorad) and lysates were diluted to equal concentration with lysis buffer. […]

[3] = test system: C2C12 myoblasts; assay: PA-induced senescence in C2C12 myoblasts (immunoblot of senescence markers, EdU incorporation); type: cell-based; conditions: C2C12 cells
Method: Cells were washed briefly with ice-cold 1×PBS, scraped in 400 μL T-PER lysis buffer (ThermoFisher) supplemented with 0.1 mM phenylmethylsulphonyl fluoride (PMSF) and protease/phosphatase inhibitor cocktail tablet (ThermoFisher). Pulverised tissue samples (20-30 mg) were lysed in the same buffer accelerated by sonication and passing through a 21 G needle. To pellet any debris, lysates were centrifuged at 10,000 g for 10 minutes at 4° C., with the supernatant transferred to fresh tubes. Protein concentrations were determined with Bradford assay (Biorad) and lysates were diluted to equal concentration with lysis buffer. Protein lysates were then mixed with Laemmli buffer, vortexed and heated to 95° C. for 5 min. Equal amounts of protein lysates in parallel with protein molecular weight marker (ThermoFisher) were loaded onto pre-cast polyacrylamide gels (Nupage 10 or 12% Bis Tris gel, Novex, Invitrogen) and separated by electrophoresis at 200V for 1 hour. Proteins were transferred onto polyvinylidene difluoride (PVDF) membrane (Invitrogen) using an electrophoretic transfer cell (Mini Trans-Blot, Bio-Rad) in ice-cold transfer buffer (48 mM Tris base, […], 0.1% SDS, 20% methanol (v/v)) at 300 mA for 2 hours. Membranes were blocked in 1× skimmed milk (ThermoFisher) for 1 hour at room temperature, followed by overnight incubation with primary antibody diluted in blocking buffer at 4° C. Next day membranes were washed, followed by 60 minutes incubation in the corresponding horseradish peroxidase (HRP)-conjugated secondary antibody diluted 1:2000-10000 in blocking buffer (all Abcam). Blots were developed using enhanced chemiluminescence (ECL) reagents (normal, Prime & Select) and digital images were acquired using an imaging system (Azure Biosystems). Membranes were usually stripped of antibodies and reprobed with an antibody targeting a protein serving as loading control (α-actinin for hearts & β-actin for all others). For this procedure, membranes were placed in Guanidine-HCl-based stripping solution (6M Guanidine-HCl, 0.2% Nonidet P-40, 0.1M β-mercaptoethanol, 20 mM Tris-HCl, pH 7.5 and 100 mM 2-mercaptoethanol) and incubated for 10 minutes at room temperature with gentle agitation, followed by extensive washing and re-blocking.^5
C2C12 (ATCC® CRL-1772™) myoblasts maintained in DMEM supplemented with L-glutamine (2 mM), penicillin/streptomycin (1%) and 5% fetal bovine serum (FBS) were seeded either at a density of 5×10^4 cells (<50%) per well in 24-well plates or 10^4 cells in 4-well chamber slides. Cells were with L-phenylalanine (1-10 mM)+BH4 (10 μM) and incubation with increasing concentrations of N-acetylcysteine (0.5, 2.5, 5 mM) vs. vehicle overnight as indicated. Cells were analysed for oxidative stress with MitoSOX™ (mitochondrial superoxide; 5 μM, ThermoFisher Scientific), CellROX™ (cytosolic superoxide; 5 μM, ThermoFisher Scientific), gene or protein expression, or various metabolites (see below).

Compound	myocardial nitric oxide synthase activity [1]	PA-induced p21 protein ([2]; PA 5 mM + BH4 10 μM)	PA-dependent senescence (p21 protein, EdU incorporation) ([3]; PA 5 mM + BH4 10 μM, FIG. 1c-d)	p21 protein ([2]; PA 5 mM, 4-hour incubation)	other markers of senescence (Cdkn2a=p16 and phospho-p53=p-p53) ([3]; PA 5 mM vs. vehicle, FIG. 1a)	cyclin-dependent kinase 1a (Cdkn1a=p21) protein ([3]; PA 5 mM vs. vehicle, FIG. 1a-b)	EdU incorporation ([3]; PA treatment, FIG. 1d)
CC(O)C(O)C1CNc2nc(N)[nH]c(=O)c2N1 (stereo not shown) [BH4, 2-amino-6-(1,2-dihydroxypropyl)-5,6,7,8-tetrahydro-3H-pteridin-4-one]	without altering	rescue	antagonised	–	–	–	–
N[C@@H](Cc1ccccc1)C(=O)O [PA, (S)-2-Amino-3-phenylpropanoic acid]	–	–	–	selective induction	remained unaltered	selectively induced	suppressed
